{"source": "PubChem BioAssay (NCI)", "note": "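All cell lines were grown in 96-well plates and treated with compound for 48 hours. TGI: total growth inhibition.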"}
{"tested_on": "CAKI-1 renal", "assay": "inhibition of tumour cell growth, NCI panel, 48 h", "units": {"TGI": "µM"}}
{"smiles": "CCCCCCc1cc2cc(-c3cn4ccsc4n3)c(=O)oc2cc1O", "TGI": "> 95.9"}
{"smiles": "N#CSC#CCCC#CSC#N", "TGI": 33.7}
{"smiles": "O=C(O)C1C2c3ccccc3C(c3ccccc32)C1C(=O)NCC1CC1", "note": "(stereo not drawn)", "TGI": "> 100"}
{"smiles": "COC(=O)[C@]1(C)CCC[C@@]2(C)C1CC[C@@]13C=C(C(C)C)[C@@H](CC1=O)CC23", "note": "(stereo partly drawn)", "TGI": 85.2}
{"smiles": "O=c1c(F)cn(Cc2c(Cl)cccc2Cl)c(=O)n1Cc1c(Cl)cccc1Cl", "TGI": "> 31.6"}
{"smiles": "CCNC(=O)c1ccc(C)c(N=NN(C)C)c1", "TGI": "> 100"}
{"smiles": "C=CCNC(=S)N/C=C(\\C#N)C(N)=O", "TGI": "> 100"}
{"smiles": "O=c1[nH]c(=O)n(C2COC(CO)C2O)cc1F", "note": "(stereo not drawn)", "TGI": "> 100"}
{"smiles": "O=[N+]([O-])c1ccc2nc(Nc3ccccc3)c(Nc3ccccc3)nc2c1", "TGI": 11.2}
{"smiles": "COc1ccc(C2=CC(C(C)=C(C(N)=O)C(N)=O)C=C(c3ccc(Br)cc3)C2)c(OC)c1", "note": "(stereo not drawn)", "TGI": "> 100"}
{"smiles": "CC(C)(CN1CCCCC1)C(/C=C/c1ccc(Cl)cc1)=N\\NC(=O)N/N=C(/C=C/c1ccc(Cl)cc1)C(C)(C)CN1CCCCC1", "TGI": 7.3}
{"smiles": "NC(Cc1ccccc1)C(=O)NC(Cc1ccccc1)NC(=O)C(Cc1c[nH]c2ccccc12)C(=O)O", "note": "(stereo not drawn)", "TGI": "> 100"}
{"smiles": "CC(=O)CC1CCC(=O)/C=C/C(=O)OC(CC(C)=O)CCC(=O)/C=C/C(=O)O1", "note": "(stereo not drawn)", "TGI": 20}
{"smiles": "O=C1c2sc(-c3ccc(Cl)cc3)cc2-n2cccc21", "TGI": "> 100"}
{"smiles": "CC(C)C(NC(=O)Oc1ccccc1)C(=O)NC1c2c(Br)sc(Br)c2C(=O)C1O", "note": "(stereo not drawn)", "TGI": 14.1}
{"smiles": "O=C1SC(SCc2ccccc2)=NC12CC2c1ccccc1", "note": "(stereo not drawn)", "TGI": 40.5}
{"smiles": "O=C1NC2(CCN(CCc3ccccc3)CC2)Oc2ccccc21", "TGI": "> 100"}
{"smiles": "Nc1ncc2c(n1)-c1ccccc1OC2N1CCCCC1", "note": "(stereo not drawn)", "TGI": "> 100"}
{"smiles": "Cc1ccc(S(=O)(=O)N2C3C=CC(C3)[C@@H]2C(Cl)(Cl)Cl)cc1", "note": "(stereo partly drawn)", "TGI": "> 68.5"}
{"smiles": "COCOC1/C=C/CCCCC(=O)C(C)C#CC1", "note": "(stereo not drawn)", "TGI": 13.7}
{"smiles": "C[N+]12C=CC=C1C(N1CCCC1)c1scc(-c3ccc(Br)cc3)c12", "note": "(stereo not drawn)", "TGI": "> 100"}
{"smiles": "C[C@]12c3c4cc(NC(=O)C(=O)NCc5ccc(-c6ccccn6)nc5)cc3Oc3cc(NC(=O)C(=O)NCc5ccc(-c6ccccn6)nc5)cc(c31)OC1C=C(NC(=O)C(=O)NCc3ccc(-c5ccccn5)nc3)C=C(O4)C12", "note": "(stereo partly drawn)", "TGI": 93.4}
{"smiles": "COC(=O)c1cccc(C)c1C1CN=NC12Cc1cc(C)cc(C)c1C2=O", "note": "(stereo not drawn)", "TGI": "> 100"}
{"smiles": "O=C1c2ccccc2-n2nnnc2C2CSCN12", "note": "(stereo not drawn)", "TGI": "> 100"}
{"smiles": "C/C(=N\\NC(N)=S)c1ccc2c(c1)Sc1ccccc1O2", "TGI": 4.37}
{"smiles": "O=c1[nH]c(=O)c2c3n(cc2[nH]1)CCCCC3", "TGI": "> 100"}
{"smiles": "COc1ccc(C(C)NNC(=O)c2ccncc2)cc1OC", "note": "(stereo not drawn)", "TGI": "> 100"}
{"smiles": "CCOC(=O)C12OC(OCC)(CC1(OCC)OCC)C1(CC1)C2=O", "note": "(stereo not drawn)", "TGI": "> 100"}
{"smiles": "O=C(C(=O)n1ccc2ccccc21)n1ccc2ccccc21", "TGI": "> 100"}
{"smiles": "COc1ccc(C(SCCO)(c2ccccc2)c2ccc(OC)cc2)cc1", "TGI": 40.6}
{"smiles": "N#Cc1cccc(-n2[nH]c(=O)ccc2=O)c1", "TGI": "> 100"}
{"smiles": "CC(N)/C(N)=N/O", "note": "(stereo not drawn)", "TGI": "> 100"}
{"smiles": "CCOC(=O)CCC(NC(=O)C(N)Cc1ccc(N(CCCl)CCCl)cc1)C(=O)OCC", "note": "(stereo not drawn)", "TGI": 3.08}
{"smiles": "CCN(CC)CCCNC(=O)c1cc(-c2nccn2C)nc2ccccc12", "TGI": "> 100"}
{"smiles": "COc1ccccc1CC(=O)C(O)(C(F)(F)F)C(F)(F)F", "TGI": "> 100"}
{"smiles": "COc1ccc2oc3c(C)cc4c(OC)nnc(OC)c4c3c2c1", "TGI": "> 100"}
{"smiles": "CC(C)=C[C@H]1C[C@H](C)[C@H]2CC[C@H](C)c3c2c1c(C)c1ncoc31", "TGI": 35.5}
{"smiles": "CCOC(=O)c1ccc(-c2cc(C)no2)[nH]1", "TGI": 71.5}
{"smiles": "O=C1/C(=C\\c2ccc(Cl)cc2Cl)Sc2scc(-c3ccc(O)c(O)c3)[n+]21", "TGI": 43.4}
{"tested_on": "HCT-116 colon", "assay": "inhibition of tumour cell growth, NCI panel, 48 h", "units": {"TGI": "µM"}}
{"smiles": "CCCCCCc1cc2cc(-c3cn4ccsc4n3)c(=O)oc2cc1O", "TGI": "> 100"}
{"smiles": "N#CSC#CCCC#CSC#N", "TGI": 48.5}
{"smiles": "O=C(O)C1C2c3ccccc3C(c3ccccc32)C1C(=O)NCC1CC1", "note": "(stereo not drawn)", "TGI": "> 100"}
{"smiles": "COC(=O)[C@]1(C)CCC[C@@]2(C)C1CC[C@@]13C=C(C(C)C)[C@@H](CC1=O)CC23", "note": "(stereo partly drawn)", "TGI": 42}
{"smiles": "O=c1c(F)cn(Cc2c(Cl)cccc2Cl)c(=O)n1Cc1c(Cl)cccc1Cl", "TGI": "> 31.6"}
{"smiles": "CCNC(=O)c1ccc(C)c(N=NN(C)C)c1", "TGI": "> 100"}
{"smiles": "C=CCNC(=S)N/C=C(\\C#N)C(N)=O", "TGI": "> 100"}
{"smiles": "O=c1[nH]c(=O)n(C2COC(CO)C2O)cc1F", "note": "(stereo not drawn)", "TGI": "> 100"}
{"smiles": "O=[N+]([O-])c1ccc2nc(Nc3ccccc3)c(Nc3ccccc3)nc2c1", "TGI": 1.82}
{"smiles": "COc1ccc(C2=CC(C(C)=C(C(N)=O)C(N)=O)C=C(c3ccc(Br)cc3)C2)c(OC)c1", "note": "(stereo not drawn)", "TGI": "> 100"}
{"smiles": "CC(C)(CN1CCCCC1)C(/C=C/c1ccc(Cl)cc1)=N\\NC(=O)N/N=C(/C=C/c1ccc(Cl)cc1)C(C)(C)CN1CCCCC1", "TGI": 12.5}
{"smiles": "NC(Cc1ccccc1)C(=O)NC(Cc1ccccc1)NC(=O)C(Cc1c[nH]c2ccccc12)C(=O)O", "note": "(stereo not drawn)", "TGI": "> 100"}
{"smiles": "CC(=O)CC1CCC(=O)/C=C/C(=O)OC(CC(C)=O)CCC(=O)/C=C/C(=O)O1", "note": "(stereo not drawn)", "TGI": 9.08}
{"smiles": "O=C1c2sc(-c3ccc(Cl)cc3)cc2-n2cccc21", "TGI": "> 100"}
